According to patent publication US20170128518A1, “METHODS AND MATERIALS FOR IDENTIFYING AND TREATING MAMMALS RESISTANT TO PROTEASOME INHIBITOR TREATMENTS” (Mayo Foundation for Medical Education and Research, priority 2014, published 2017):
“Also recorded” adds a separate entry of the source.

Legend:
BCWM.1/BR = assay: MTS viability assay, BCWM.1/BR; format: cell-based, human; details: 72-h MTS assay
Experimental: FIGS. 4A-4D show the characterization of BR WM models, established by subjecting WM cancer cell lines (n=3) chronic drug exposure. […] FIG. 4C is a graph plotting relative fluorescence units in an assay to examine PSMB5 enzyme function by flow cytometry.
(§1) Twenty thousand cells/200 μl in quadruplicates were incubated with serially diluted b-AP15 (1-1000 nmol/l) in 96-well plates at 37° C. for 72 hours. MTS (3-(4,5-dimethylthiazol-2-yl)-5-(3-carboxymethoxyphenyl)-2-(4-sulfophenyl)-2H-tetrazolium) reagent (Molecular Probes, Eugene, Oreg.) was added at 40 μl/well and the plates were further incubated at 37° C. for 3 hours and the developed color was read at 490 nm using a BioTek synergy HT plate reader against blanks with no cells.

MWCL-1/BR = assay: MTS viability assay, MWCL-1/BR; format: cell-based, human; details: 72-h MTS assay, MWCL-1B/BR
Experimental: as §1

RPCI-WM1/BR = assay: MTS viability assay, RPCI-WM1/BR; format: cell-based, human; details: 72-h MTS assay
Experimental: as §1

[1] = target: T1, 20S proteasome b5 subunit (Homo sapiens, UniProt P28074); assay: Proteasomal activity assay, chymotrypsin-like (LLVY-AMC), WM cells; format: biochemical; details: 10 nmol/l; WT and BR WM cells
T1 construct: Cells were lysed at 4×10^6 cells/ml in proteasomal activity assay buffer; endogenous in cells; host or cells: BCWM.1, MWCL-1, RPCI-WM1 and their BR subclones (lysates)
T1 sequence (P28074 60-263): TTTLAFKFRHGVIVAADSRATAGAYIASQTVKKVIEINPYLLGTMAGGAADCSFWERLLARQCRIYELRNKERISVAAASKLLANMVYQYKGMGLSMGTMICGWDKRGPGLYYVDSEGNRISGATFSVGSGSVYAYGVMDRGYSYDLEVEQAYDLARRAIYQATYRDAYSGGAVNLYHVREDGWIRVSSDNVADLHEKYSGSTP
Experimental: FIGS. 10A and 10B are a series of graphs plotting the effect of b-AP15 treatment on 20S proteasome, b5-subunit (chymotrypsin-like) catalytic activity in WT and BR WM cells.
Cells were lysed at 4×10^6 cells/ml in proteasomal activity assay buffer [assay buffer; 25 mmol/1 HEPES buffer, pH7.5 containing 0.5 mmol/1 EDTA, 0.05% Nonidet P-40, 0.01% sodium dodecyl sulfate (SDS)] and immediately used in the assay. Enzyme reactions were performed in 96-well plates with 100 μl of final volume containing […] fluorogenic peptide substrates. The substrates used were LLVY-AMC for chymotrypsin like activity, LLE-AMC for caspase-like activity and LRR-AMC for trypsin-like activity. Reactions were incubated at 37° C. for 1 hour and fluorescence was measured at 360/460 using a BioTek synergy HT plate reader (BioTek, Winooski, Vt.).

[2] = test system: CD19+/CD138+ WM cells from human patients; assay: Annexin-V apoptosis assay, primary patient-derived WM cells; format: cell-based
Experimental: FIGS. 12A-12D are a series of graphs and Western blots showing b-AP15 induction of tumor-specific apoptosis in WM cell lines and primary patient-derived WM cells. FIG. 12A is a graph plotting cell death as a percentage of control cell death for all available WM cell lines (n=6, WT and BR derivatives) after treatment with the indicated concentrations of b-AP15, followed by staining with annexin-V and propidium iodide and then flow cytometry to examine apoptosis. […] Each experiment was conducted a minimum of three times with control cells (no drug treatment) showing a viability ([…] and propidium iodide-negative population) of >85%. Following treatment, the percentage of cells affected by b-AP15 was calculated by normalizing data from treated cells relative to the control (untreated) cells. […]
Apoptosis was measured using the Annexin V binding assay kit from BD Biosciences according to the manufacturer's instructions. […] Fluorescein isothiocycanate (FITC)-labelled Annexin V (5 μl) and propidium iodide (10μ were added to each sample and incubated in the dark for 15 minutes at room temperature. The cells were subsequently analyzed by flow cytometry using BD Accuri, the C6 flow cytometer and its software. Data from 10,000 events per sample were collected and analyzed.

WT and BR WM cells = assay: Mitochondrial outer membrane permeability (TMRM), WM cell lines; format: cell-based, human
Experimental: (§2) Cells were treated with different agents for 48 hours and assessed for MOMP using tetramethylrhodamine methyl ester [TMRM] (Life Technologies). TMRM was directly added to the cell cultures at 100 nmol/1 concentrations and incubated at 37° C. in the dark for 15 minutes. At the end of the incubation, cells were washed twice with cold PBS containing 2% FBS and analyzed. The cells were washed for fluorescence (FL2) and analyzed by BD Accuri, the C6 flow cytometer and its software. Data from at least 20,000 events per sample were collected and analyzed. TMRM-negative (%) cells were calculated to determine % MOMP.

BCWM.1 cells = assay: Mitochondrial outer membrane permeability (TMRM), BCWM.1; format: cell-based, human
Experimental: FIG. 19 is a pair of histograms showing MOMP in representative WM models±b-AP15 treatment (BCWM.1 and BCWM.1/BR cells; one WT with its respective BR subclone). Black histogram represents control. Lines represent a shift in MOMP.
as §2

## C=CC(=O)N1C/C(=C\c2ccc([N+](=O)[O-])cc2)C(=O)/C(=C/c2ccc([N+](=O)[O-])cc2)C1 [b-AP15]
BCWM.1/BR
  IC50: 16 nM
MWCL-1/BR
  IC50: 3 nM
RPCI-WM1/BR
  IC50: 57 nM
[1]
  chymotrypsin-like activity (LLVY) of the b5 subunit: did not alter chymotryptic activity; also recorded: no loss of the chymotrypsin-like activity
[2]; 0.5 μmol/l, 12 hours
  apoptosis (annexin-V positivity): Significant annexin-V positivity; also recorded: Robust apoptotic cell death
[2]; 1 μmol/l
  cells undergoing total loss of viability: > 90%
WT and BR WM cells
  MOMP: significantly induced
BCWM.1 cells
  increase in MOMP: 57%
